Reference: patent US5252571A, “1,4-benzothiazine-2-acetic acid derivatives” (Sapporo Breweries Limited, priority 1990, dated 1993)
One block for each molecule: values may come before it.

Legend:
aldose reductase = biological target: T1, aldose reductase (Sus scrofa, UniProt P80276); test: Aldose reductase inhibitory activity (porcine crystalline lens enzyme); assay type: biochemical; settings: d1-glyceraldehyde 3 mM, pH 6.2, 25° C., 2 minutes
T1 construct: porcine crystalline lens stored at -80° C. was homogenized in distilled water; from tissue; host or cells: porcine crystalline lens
Procedure: Aldose reductase enzyme standard was prepared from porcine crystalline lens by the method of Hayman et al. (cf., S. Hayman et al., Journal of Biological Chemistry, 240, 877-882, 1965). That is, porcine crystalline lens stored at -80° C. was homogenized in distilled water followed by centrifugation at 10,000 XG for 15 minutes. The supernatant was dissolved to make 40% ammonium sulfate solution. The supernatant centrifuged at 10,000 XG for further 10 minutes was dialyzed to 0.05 M sodium chloride solution overnight. The thus obtained dialysate was used as the enzyme standard.
The activity of aldose reductase was determined by the method of Hayman et al. supra. That is, 25 μl of the enzyme solution described above and […] of a drug solution in 1% DMSO having various concentrations were added to 200 μl of 40 mM phosphate buffer (pH 6.2) prepared to contain […] lithium sulfate and 0.1 MM NADPH (reduced nicotinamide adenine dinucleotide phosphate) in final concentrations and Containing 3 mM d1-glyceraldehyde as substrate, respectively. Thereafter, the mixture was reacted at 25° C. for 2 minutes and change in absorbance at 340 nm was determined using COBAS FARA II (Roche Co.).

ICR strain mice = test: Safety test, single oral administration in mice with 14 days observation; assay type: in vivo; settings: 300 mg/kg oral, male ICR mice
Procedure: Next, safety of the compounds of the present invention was verified by the following test.
After normal ICR strain mice (male, 7 weeks age, 5 mice being into one group) was fasted for 18 hours, each compound (300 mg/kg) of Examples 1311, 132, 134, 156, 173, 179, 183 and 188 was orally administered in the form of 0.5% carboxymethylcellulose suspension. In the control group, 0.5% carboxymethylcellulose solution alone was orally administered. […] During the observation, mice were free access to feed and water.

[1] = tested on: tissue sorbitol in streptozotocin-induced diabetic rats; test: Inhibitory activity of accumulation of tissue sorbitol in streptozotocin-induced diabetic rats; assay type: in vivo, Sprague-Dawley rats; settings: 30 mg/kg oral 4, 8 and 24 hours after streptozotocin, control = 100%, Tukey's test *p < 0.05, **p < 0.01; for Accumulation of Tissue Sorbitol (%), Nerve: sciatic nerve
Procedure: 4) Inhibitory activity of accumulation of tissue sorbitol in streptozatocini-induced diabetic rats.
Sprague-Dawley rats (male,6 weeks of age, one group composed of 5 to 6 rats), fasted overnight, were made diabetic by single intravenous injection of 60 mg/kg body weight of streptozotocin (SIGMA Co. ) , which had been freshly dissolved in normal saline solution.
The compound was orally administered in the form of 0.5% carboxymethylcellulose suspension in a dose of 30 mg/kg 4, 8 and 24 hours after the injection of streptozotocin. During the test, rats were free access to feed and water. Three hours after the final administration, the sorbitol contens in tissues (red blood cell, sciatic nerve, lens) Were determined by the enzyme method of Bergmeyer et al. [cf., H. Y. Bergmeyer et al., Methods of Enzymatic Analysis, 3, 1323-1330, 1974], using SDH (sorbitol dehydrogenase) and AND (β-nicotinamide adenine dinucleotide). The results are shown by percentage (%) when the value obtained with control group administered with 0.5% carboxymethylcellulose solution as a solvent instead of the compound was made 100%.

Structure (SMILES): Cc1ccc2c(c1)N(Cc1nc3cc(F)ccc3s1)C(=O)C(CC(=O)O)S2 (centres unmarked) [Example 132, 2-[4-(5-Fluorobenzothiazol-2-yl)methyl-6-methyl-3,4-dihydro-3-oxo-2H -1,4-benzothiazin-2-yl]acetic acid]
- body weight (ICR strain mice): progressed as in the control group
- mice dead (ICR strain mice): none

Structure (SMILES): O=C(O)CC1Sc2ccccc2N(Cc2nc3c(F)ccc(F)c3s2)C1=O (centres unmarked) [Example 158, 2-[4-(4,7-Difluorobenzothiazol-2-yl)methyl-3,4-dihydro-3-oxo-2H-1,4-benzothiazin-2-yl]acetic acid]
- Accumulation of Tissue Sorbitol (%), Lens [1]: 58.4%
- Accumulation of Tissue Sorbitol (%), Red Blood Cell [1]: 39.2%
- Accumulation of Tissue Sorbitol (%), Nerve [1]: 33.1%

Structure (SMILES): O=C(O)CC1Sc2ccccc2N(Cc2nc3cc(F)cc(F)c3s2)C1=O (centres unmarked) [Example 173, 2-[4-(5,7-Difluorobenzothiazol-2-yl)methyl-3,4-dihydro-3-oxo-2H-1,4-benzothiazin-2-yl]acetic acid]
- IC50 (aldose reductase): 14 nM
- body weight (ICR strain mice): progressed as in the control group
- mice dead (ICR strain mice): none

Structure (SMILES): Cc1cc(C)c2c(c1)N(Cc1nc3cc(F)ccc3s1)C(=O)C(CC(=O)O)S2 (centres unmarked) [Example 134, 2-[6,8-Dimethyl-4-(5-fluorobenzothiazol-2-yl)methyl-3,4-dihydro-3-oxo-2H-1,4-benzothiazin-2-yl]acetic acid]
- body weight (ICR strain mice): progressed as in the control group
- mice dead (ICR strain mice): none

Structure (SMILES): O=C(O)CC1Sc2ccccc2N(Cc2nc3c(Cl)c(Cl)ccc3s2)C1=O (centres unmarked) [Example 154, 2-[4-(4,5-Dichlorobenzothiazol-2-yl)methyl-3,4-dihydro-3-oxo-2H-1,4-benzothiazin-2-yl]acetic acid]
- Accumulation of Tissue Sorbitol (%), Lens [1]: 59.0%
- Accumulation of Tissue Sorbitol (%), Red Blood Cell [1]: 3.3%
- Accumulation of Tissue Sorbitol (%), Nerve [1]: 18.6%

Structure (SMILES): Cc1ccc2c(c1)N(Cc1nc3cc(F)cc(F)c3s1)C(=O)C(CC(=O)O)S2 (centres unmarked) [Example 179, 2-[4-(5,7-Difluorobenzothiazol-2-yl)methyl-6-methyl-3,4-dihydro-3-oxo-2H-1,4-benzothiazin-2-yl]acetic acid]
- body weight (ICR strain mice): progressed as in the control group
- mice dead (ICR strain mice): none

Structure (SMILES): Cc1ccc2c(c1)N(Cc1nc3c(Cl)c(Cl)ccc3s1)C(=O)C(CC(=O)O)S2 (centres unmarked) [Example 156, 2-[4-(4,5-Dichlorobenzothiazol-2-yl)methyl-6-methyl-3,4-dihydro-3-oxo-2H-1,4-benzothiazin-2-yl]acetic acid]
- body weight (ICR strain mice): progressed as in the control group
- mice dead (ICR strain mice): none

Structure (SMILES): O=C(O)CC1Sc2ccc(F)cc2N(Cc2nc3c(F)c(F)ccc3s2)C1=O (centres unmarked) [Example 209, 2-[4-(4,5-Difluorobenzothiazol-2-yl)methyl-6-fluoro-3,4-dihydro-3-oxo-2H-1,4-benzothiazin-2-yl]acetic acid]
- Accumulation of Tissue Sorbitol (%), Lens [1]: 25.2%
- Accumulation of Tissue Sorbitol (%), Red Blood Cell [1]: 24.7%
- Accumulation of Tissue Sorbitol (%), Nerve [1]: 3.1%

Structure (SMILES): O=C(O)CC1Sc2ccccc2N(Cc2nc3cc(F)ccc3s2)C1=O (centres unmarked) [Example 131, 2-[4-(5-fluorobenzothiazol-2-yl]methyl-3,4-dihydro-3-oxo-2H-1,4-benzothiazin-2-yl]acetic acid]
- IC50 (aldose reductase): 15 nM
- body weight (ICR strain mice): progressed as in the control group
- mice dead (ICR strain mice): none

Structure (SMILES): O=C(O)CC1Sc2c(F)cccc2N(Cc2nc3c(F)c(F)cc(F)c3s2)C1=O (centres unmarked) [Example 208, 2-[4-(4,5,7-Trifluorobenzothiazol-2-yl)methyl-8-fluoro-3,4-dihydro-3-oxo-2H-1,4-benzothiazin-2-yl]acetic acid]
- Accumulation of Tissue Sorbitol (%), Lens [1]: 31.5%
- Accumulation of Tissue Sorbitol (%), Red Blood Cell [1]: 22.9%
- Accumulation of Tissue Sorbitol (%), Nerve [1]: 0.0%

More lines, main results first:

- IC50 (aldose reductase): 9.8 nM
Structure (SMILES): O=C(O)CC1Sc2cc(OC(F)(F)F)ccc2N(Cc2nc3cc(F)cc(F)c3s2)C1=O (centres unmarked) [Example 187, 2-[4-(5,7-Difluorobenzothiazol-2-yl)methyl-7-trifluoromethoxy-3,4-dihydro-3-oxo-2H-1,4-benzothiazin-2-yl]acetic acid]

- IC50 (aldose reductase): 14 nM
Structure (SMILES): O=C(O)CC1Sc2ccccc2N(Cc2nc3ccc(F)c(F)c3s2)C1=O (centres unmarked) [Example 155, 2-[4-(6,7-Difluorobenzothiazol-2-yl)methyl-3,4-dihydro-3-oxo-2H-1,4-benzothiazin-2-yl]acetic acid]
- Accumulation of Tissue Sorbitol (%), Lens [1]: 36.8%
- Accumulation of Tissue Sorbitol (%), Red Blood Cell [1]: 0.0%
- Accumulation of Tissue Sorbitol (%), Nerve [1]: 7.0%

- IC50 (aldose reductase): 16 nM
Structure (SMILES): O=C(O)CC1Sc2cccc(F)c2N(Cc2nc3cc(F)ccc3s2)C1=O (centres unmarked) [Example 177, 2-[5-Fluoro-4-(5-fluorobenzothiazol-2-yl)methyl-3,4-dihydro-3-oxo-2H-1,4-benzothiazin-2-yl]acetic acid]

- IC50 (aldose reductase): 6.8 nM
Structure (SMILES): COc1ccc2c(c1)N(Cc1nc3c(Cl)c(Cl)ccc3s1)C(=O)C(CC(=O)O)S2 (centres unmarked) [Example 206, 2-[4-(4,5-Dichlorobenzothiazol-2-yl)methyl-6-methoxy-3,4-dihydro-3-oxo-2H-1,4-benzothiazin-2-yl]acetic acid]

- IC50 (aldose reductase): 7.7 nM
Structure (SMILES): Cc1ccc2c(c1)SC(CC(=O)O)C(=O)N2Cc1nc2ccc(F)c(F)c2s1 (centres unmarked) [Example 199, 2-[4-(6,7-Difluorobenzothiazol-2-yl)methyl-7-methyl-3,4-dihydro-3-oxo-2H-1,4-benzothiazin-2-yl]acetic acid]

- IC50 (aldose reductase): 8.7 nM
Structure (SMILES): O=C(O)CC1Sc2cc(Cl)ccc2N(Cc2nc3c(F)c(F)cc(F)c3s2)C1=O (centres unmarked) [Example 202, 2-[4-(4,5,7-Trifluorobenzothiazol-2-yl)methyl-7-chloro-3,4-dihydro-3-oxo-2H-1,4-benzothiazin-2-yl]acetic acid]

- IC50 (aldose reductase): 14 nM
Structure (SMILES): O=C(O)CC1Sc2ccccc2N(Cc2nc3ccc(Cl)c(Cl)c3s2)C1=O (centres unmarked) [Example 160, 2-[4-(6,7-Dichlorobenzothiazol-2-.yl)methyl-3,4-dihydro-3-oxo-2H-1,4-benzothiazin-2-yl]acetic acid]

- IC50 (aldose reductase): 15 nM
Structure (SMILES): CCOc1ccc2c(c1)SC(CC(=O)O)C(=O)N2Cc1nc2cc(F)ccc2s1 (centres unmarked) [Example 133, 2-[7-Ethoxy-4-(5-fluorobenzothiazol-2-yl)methyl-3,4-dihydro-3-oxo-2H-1,4-benzothiazin-2-yl]acetic acid]

- IC50 (aldose reductase): 14 nM
Structure (SMILES): Cc1ccc2c(c1)N(Cc1nc3cc(Cl)ccc3s1)C(=O)C(CC(=O)O)S2 (centres unmarked) [Example 139]

- IC50 (aldose reductase): 14 nM
Structure (SMILES): Cc1ccc2c(c1)N(Cc1nc3c(F)cccc3s1)C(=O)C(CC(=O)O)S2 (centres unmarked) [Example 176, 2-[4-(4-Fluorobenzothiazol-2-yl)methyl-6-methyl-3,4-dihydro-3-oxo-2H-1,4-benzothiazin-2-yl]acetic acid]

- IC50 (aldose reductase): 12 nM
Structure (SMILES): O=C(O)CC1Sc2cc(F)ccc2N(Cc2nc3cc(F)cc(F)c3s2)C1=O (centres unmarked) [Example 182, 2-[4-(5,7-Difluorobenzothiazol-2-yl)methyl-7-fluoro-3,4-dihydro-3-oxo-2H-1,4-benzothiazin-2-yl]acetic acid]

- IC50 (aldose reductase): 9.1 nM
Structure (SMILES): O=C(O)CC1Sc2ccccc2N(Cc2nc3c(Cl)c(Cl)cc(Cl)c3s2)C1=O (centres unmarked) [Example 166, 2-[4-(4,5,7-Trichlorobenzothiazol-2-yl)methyl-3,4-dihydro-3-oxo-2H-1,4-benzothiazin-2-yl]acetic acid]
